Measurements from US20220401408A1, “COMPOSITIONS AND METHODS FOR RESCUING RETINAL AND CHOROIDAL STRUCTURE AND FUNCTION” (AUCKLAND UNISERVICES LIMITED, priority 2019, published 2022).

System: light damaged rats
Experiment: Optical coherence tomography (OCT) of retinal layers and choroid in light damage model
Format: in vivo, Sprague Dawley (SD) rats
Procedure: Retina Light Damage Model of Dry Age-Related Macular Degeneration—The intense light damage model was prepared and carried out as described in previous studies. Mat Nor N, Guo C X, Rupenthal ID, Chen Y S, Green C R, Acosta M L. Sustained Connexin43 Mimetic Peptide Release From Loaded Nanoparticles Reduces Retinal and Choroidal Photodamage. Invest Ophthalmol Vis Sci. 2018; 59:3682-93; Guo C X, Mat Nor M N, Danesh-Meyer H V, Vessey K A, Fletcher E L, O'Carroll S J, et al. Connexin43 Mimetic Peptide Improves Retinal Function and Reduces Inflammation in a Light-Damaged Albino Rat Model. Invest Ophthalmol Vis Sci. 2016; 57:3961-73; Guo C X, Tran H, Green C R, Danesh-Meyer H V, Acosta M L. Gap junction proteins in the light-damaged albino rat. Mol Vis. 2014; 20:670-82; Noell W K, Walker V S, Kang B S, Berman S. Retinal damage by light in rats. Invest Ophthalmol. 1966; 5:450-73. The light damage rat model was selected as it allows direct comparison with this and other drugs. Kim Y, Griffin J M, Nor M N M, Zhang J, Freestone P S, Danesh-Meyer H V, et al. Tonabersat Prevents Inflammatory Damage in the Central Nervous System by Blocking Connexin43 Hemichannels. Neurotherapeutics. 2017; 14:1148-65; Mat Nor N, Guo C X, Rupenthal ID, Chen Y S, Green C R, Acosta M L, supra; Guo C X, Mat Nor M N, Danesh-Meyer H V, Vessey K A, Fletcher E L, O'Carroll S J, et al., supra. […] All experimental procedures were approved by the University of Auckland Animal Ethics Committee, approval No. 001462 and comply with the Association for Research in Vision and Ophthalmology (ARVO) statement for the use of animals in eye research. Six to eight-week old albino Sprague Dawley (SD) rats (200-250 g; male or female) were used. Adult SD rats were exposed to continuous bright light for 24 hours, consistently starting at 9:00 am to minimize possible time-of-day variability. Light exposure was to two animals at a time to prevent rats from taking cover using each other as a shield. The LD protocol and intervention was repeated until the number of individuals for each dose group was obtained (n=7 per group). The light luminance was 2700 lux, generated using fluorescent lamps (Philips Master TLD 18W/965; Koninklijke Philips Electronics N.V., China) directly above the animal cages. The lamps were cool and emitted broadband light, from 380 to 760 nm wavelength, with the average intensity at the top of the cage being 120 W/m2. Animals were free to move within the cage with access to food and water ad libidum. Baseline electroretinography (ERG) readings and optical coherence tomography (OCT) images were collected prior to the light damage. After light exposure, animals were returned to normal light-dark cycle conditions (12 hours light, 174 lux and 12 hours darkness, <62 lux) for 24 hours, 1 week or 2 weeks (and for one group 3 months).
Tonabersat treatment of light damaged rats—LD rats were randomly assigned to low, middle or high dose of tonabersat (n=7 per group). The mixture of tonabersat in peanut butter was prepared fresh for each experiment. Three oral tonabersat doses were tested (n=7 per group) with follow up to 2 weeks post-injury, and the highest dose group then split with three animals taken for histological analysis, and four animals followed to 3 months post-injury. There was a ten-animal vehicle only control group. The group of rats that were kept for 3 months were maintained in separate cages for drug or vehicle-treated animals, but were kept under the same light conditions. Tonabersat was fed to animals in peanut butter at 0.26 mg/kg (on average 0.08 mg delivered, estimated circulating concentration 10 μM), 0.8 mg/kg (average of 0.24 mg delivered; 30 μM circulating) or 2.4 mg/kg (on average 0.72 mg delivered; 90 μM circulating) following consideration of previous unsuccessful human trial dosing levels. Silberstein S D. Tonabersat, a novel gap-junction modulator for the prevention of migraine. Cephalalgia. […]

[1] = 2.4 mg/kg oral, 3 months post treatment, p<0.001
[2] = all three oral doses, 24 hours, 1 week and 2 weeks post light damage

Compound: CC(=O)c1ccc2c(c1)[C@H](NC(=O)c1ccc(F)c(Cl)c1)[C@H](O)C(C)(C)O2 [tonabersat, N-[(3S,4S)-6-acetyl-3-hydroxy-2,2-dimethyl-3,4-dihydrochromen-4-yl]-3-chloro-4-fluorobenzamide]
- ONL thickness compared to same animals prior to light damage (2.4 mg/kg oral, 3 months): no difference
- choroidal thickness compared to same rats prior to light damage (2.4 mg/kg oral, 3 months): no difference
- choroidal thickness compared to vehicle treatment group [1]: significantly preserved
- retinal thickness compared to vehicle treatment group [1]: significantly preserved
- INL thickness compared to same animals prior to light damage (2.4 mg/kg oral, 3 months, p<0.05): slightly reduced thickness
- choroidal thickness (OCT) [2]: significantly preserved
- retinal thickness (OCT) [2]: significantly preserved
- thinning in the ONL or choroid (lowest and middle dose (0.26, 0.8 mg/kg), up to 2 weeks post light damage): some thinning at the lowest and middle dose, it was not significant
